target: MAPK14 (human) (UniProt Q16539); assay: Inhibition of MAPK14 Kinase Activity
Sequence (Q16539 whole entry, looked up): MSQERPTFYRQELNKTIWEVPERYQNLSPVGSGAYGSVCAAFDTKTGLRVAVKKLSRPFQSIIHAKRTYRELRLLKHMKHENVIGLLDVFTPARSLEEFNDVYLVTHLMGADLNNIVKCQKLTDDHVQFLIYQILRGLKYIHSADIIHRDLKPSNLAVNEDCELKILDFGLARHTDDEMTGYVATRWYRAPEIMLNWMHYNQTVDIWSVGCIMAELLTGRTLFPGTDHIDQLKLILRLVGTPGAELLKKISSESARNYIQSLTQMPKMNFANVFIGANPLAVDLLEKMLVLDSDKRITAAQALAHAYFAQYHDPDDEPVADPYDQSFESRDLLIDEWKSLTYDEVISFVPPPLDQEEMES

IC50, ≤ 1000 nM:
NC(=O)c1sc2c(ccc(=O)n2-c2ccccc2)c1Nc1cccc(OC(F)(F)F)c1
NC(=O)c1sc2c(ccc(=O)n2-c2ccccc2)c1Nc1ccccc1Cl
O=C(c1sc2c(ccc(=O)n2-c2ccccc2)c1Nc1ccc(F)cc1F)N1CCOCC1
Cc1nccn1CCOc1ccc(-n2c(=O)ccc3c(Nc4ccc(F)cc4F)c(C(N)=O)sc32)cc1
CCOC(=O)c1sc2c(ccc(=O)n2-c2ccc3[nH]ccc3c2)c1Nc1ccccc1
Cc1ccccc1Nc1c(C#N)sc2c1ccc(=O)n2-c1ccccc1
NC(=O)c1sc2c(ccc(=O)n2-c2ccccc2)c1Nc1cccc(C(F)(F)F)c1
CN1CCN(CCCNC(=O)c2sc3c(ccc(=O)n3-c3ccccc3)c2Nc2ccccc2)CC1
Cc1ccccc1-n1c(=O)ccc2c(Nc3ccc(F)cc3F)c(C(N)=O)sc21
NC(=O)c1sc2c(ccc(=O)n2CC2CC2)c1Nc1ccccc1
NC(=O)c1sc2c(ccc(=O)n2-c2ccsc2)c1Nc1ccccc1
CCOC(=O)c1sc2c(ccc(=O)n2-c2ccccc2)c1Nc1ccc(F)cc1
Cc1cc(Nc2c(C(=O)N(C)O)sc3c2ccc(=O)n3-c2ccccc2)ccc1F
CCOC(=O)c1sc2c(ccc(=O)n2-c2ccsc2)c1Nc1ccccc1C#N
CCOC(=O)c1sc2c(ccc(=O)n2-c2ccccc2)c1Nc1cccc(Cl)c1C#N
N#Cc1sc2c(ccc(=O)n2-c2cccnc2)c1Nc1ccccc1
CCOC(=O)c1sc2c(ccc(=O)n2-c2ccccc2)c1Nc1ccccc1
O=C(NCCN1CCCCC1)c1sc2c(ccc(=O)n2CC2CC2)c1Nc1ccccc1
N#Cc1sc2c(ccc(=O)n2-c2ccccc2)c1Nc1ccc(F)c(Cl)c1
NC(=O)c1sc2c(ccc(=O)n2-c2ccccc2)c1Nc1cccc(Cl)c1
CCOC(=O)c1sc2c(ccc(=O)n2-c2ccsc2)c1Nc1ccc(F)c(C)c1
NC(=O)c1sc2c(ccc(=O)n2-c2ccccc2)c1Nc1cccc(Br)c1
C=Cc1ccc(-n2c(=O)ccc3c(Nc4ccccc4)c(C(N)=O)sc32)cc1
C[S+]([O-])c1ccc(-n2c(=O)ccc3c(Nc4ccccc4C#N)c(C(N)=O)sc32)cc1 (configuration not stated)
N#Cc1sc2c(ccc(=O)n2-c2ccccc2)c1Nc1ccccc1O
Cc1cccc(Nc2c(C#N)sc3c2ccc(=O)n3-c2ccccc2)c1
O=C(NCCCn1ccnc1)c1sc2c(ccc(=O)n2-c2ccccc2)c1Nc1ccccc1
N#Cc1ccccc1Nc1c(C(N)=O)sc2c1ccc(=O)n2-c1ccccc1
NNC(=O)c1sc2c(ccc(=O)n2-c2ccccc2)c1Nc1ccccc1
NC(=O)c1sc2c(ccc(=O)n2Cc2ccccc2)c1Nc1ccccc1
CCOC(=O)c1sc2c(ccc(=O)n2-c2ccc(C(C)(C)O)cc2)c1Nc1ccccc1
N#Cc1sc2c(ccc(=O)n2-c2ccccc2)c1Nc1cc(Cl)cc(Cl)c1
CNC(=O)c1sc2c(ccc(=O)n2-c2ccccc2)c1Nc1ccccc1
CCOC(=O)c1sc2c(ccc(=O)n2CCOCCOC)c1Nc1ccccc1
Cc1ccc(-n2c(=O)ccc3c(Nc4ccc(F)c(C)c4)c(C(N)=O)sc32)cc1
CCOC(=O)c1sc2c(ccc(=O)n2Cc2ccccc2)c1Nc1ccccc1
N#Cc1sc2c(ccc(=O)n2-c2ccccc2)c1Nc1cccc(O)c1
CCOC(=O)c1sc2c(ccc(=O)n2-c2ccccc2)c1Nc1cccnc1
CCOC(=O)c1sc2c(ccc(=O)n2-c2ccccc2[N+](=O)[O-])c1Nc1ccc(F)cc1F
N#Cc1sc2c(ccc(=O)n2-c2ccccc2)c1Nc1ccc(F)cc1F
N#Cc1sc2c(ccc(=O)n2-c2ccccc2)c1Nc1cccc([N+](=O)[O-])c1
N#Cc1sc2c(ccc(=O)n2-c2ccc(OC[C@H](O)CO)cc2)c1Nc1ccc(F)cc1F
CCOC(=O)c1sc2c(ccc(=O)n2-c2ccccc2)c1Nc1cc(C)ccc1C#N
NC(=O)c1sc2c(ccc(=O)n2-c2ccccc2)c1Nc1cccc(Cl)n1
O=C(NCCN1CCCCC1)c1sc2c(ccc(=O)n2-c2ccccc2)c1Nc1ccccc1
Cc1cccc(Nc2c(C(N)=O)sc3c2ccc(=O)n3-c2ccc(F)cc2)c1
CN(C)c1ccc(-n2c(=O)ccc3c(Nc4ccccc4)c(C(=O)NCCN4CCCCC4)sc32)cc1
Cc1cccc(Nc2c(C(N)=O)sc3c2ccc(=O)n3CC2CC2)c1
Cc1cccc(Nc2c(C#N)sc3c2ccc(=O)n3CC2CC2)c1
Cc1cccc(Nc2c(C(N)=O)sc3c2ccc(=O)n3-c2ccccc2)c1
CSc1cccc(Nc2c(C(N)=O)sc3c2ccc(=O)n3-c2ccccc2)c1
CCOC(=O)c1sc2c(ccc(=O)n2CC2CCCCO2)c1Nc1ccc(F)cc1F (configuration not stated)
